Data published in patent publication US10166246B2, “TGR5 agonist complexes for treating diabetes and cancer” (City of Hope, priority 2014, dated 2019).
“Also recorded” adds a separate entry of the source.

What was measured:
db/db mice = assay: 5-week treatment of diabetic db/db mice (body weight, fasting glucose, liver and kidney weight, HbA1c); type: in vivo, mouse; settings: for significance of the effect in body weight loss: 30 mg/kg BW (0.057 mmol), 5 weeks
Description: FIG. 8 Effect on body weight of administration of ligand and complex administered […] for 5 weeks in db/db mice (seven per group), with vehicle controls.
For each experiment, there were 8 groups of mice representing the different treatments. […] Eleven-week old male normal and high-fat fed C57BL/6J mice and 7-week old male B6.BKS-Lepr^db (db/db) mice (The Jackson Laboratory, Bar Harbor, Me.) were acclimatized for at least one week on a 12-hour light/dark cycle at 68-72° F., then fed either a standard (10% fat kcal) or high-fat diet containing 60 kcal % fat (Research Diets, Inc., New Brunswick, N.J.) for the duration of the study. All animals were access to their respective diets and water ad libitum. […] For each group, each mouse was given the drugs via i.p. injection, three times a week (Monday, Wednesday, Friday) for a total duration of 5 weeks. Before, and in the course of treatment, body weight, water and food consumption (by weighing before and after weights of water bottles and leftover food in individual cages) were measured 2×per week, while blood glucose measurements were conducted weekly via tail-bleeding while on physical restraint using disposable cone-shaped plastic holders (Kent Scientific). Various tissues (liver, skeletal muscles and adipose tissues) and blood (for lipid, insulin and glucose measurements), were collected and analyzed at the end of the experiment. Before termination of the study, glucose tolerance tests were performed on each mouse on the last week of treatment. For the glucose tolerance test (GTT), after an overnight fast, mice were injected intraperitoneally with glucose (2 g/kg body weight). […] Mice were euthanized by CO2 asphyxiation according to the Association for Assessment and Accreditation of Laboratory Animal Care International guidelines. The different experimental groups had at least 8 animals each.

TGR5 [1] = target: T1, TGR5 (Homo sapiens, UniProt Q8TDU6); settings: HEK293 cells with human TGR5, pCRE-Luc; 0.1-50 μM test concentrations
T1 sequence (Q8TDU6 1-330): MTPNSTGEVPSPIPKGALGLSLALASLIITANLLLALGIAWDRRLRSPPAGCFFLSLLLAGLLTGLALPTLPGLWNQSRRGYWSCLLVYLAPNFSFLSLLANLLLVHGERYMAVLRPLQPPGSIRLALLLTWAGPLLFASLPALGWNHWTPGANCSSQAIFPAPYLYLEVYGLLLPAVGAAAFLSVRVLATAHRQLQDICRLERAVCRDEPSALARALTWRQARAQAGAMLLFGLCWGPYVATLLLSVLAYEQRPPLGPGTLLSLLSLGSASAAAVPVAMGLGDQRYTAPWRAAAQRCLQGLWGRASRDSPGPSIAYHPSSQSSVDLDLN
Description: HEK293 overexpressing TGR5 cells were transfected 100 ng pCRE-luc reporter along with 10 ng pCMV-beta-galactosidase by HiPerfect (Qiagen).
Complexes were evaluated for their ability to activate TGR5 at 0.1, 0.5, 1, 5.0, 10, 30, and 50 μM test concentrations.
Cell Culture: HEK293 and HEK293-TGR5 overexpressing cells were cultured in high glucose Dulbecco's modified Eagle's medium (DMEM, CELLGRO®, Manassas, Va.) with L-glutamine supplemented with 10% (vol/vol) heat-inactivated fetal bovine serum (Gemini Bio-Products, West Sacramento, Calif.). TGR5-overexpressing HEK293 cells were maintained in G418-containing media until plating. Cells were plated in 24-well plates (5×10^5 cells/well) 24 h before transfection. Prior to transfection, cells were rinsed with PBS, and media was replaced with DMEM without phenol red supplemented with 10% super-stripped FBS.
TGR5 and FXR Luciferase Assay: To evaluate TGR5 activity of compounds, cells were transfected 100 ng pCRE-luc reporter along with pCMV-galactosidase (10 ng) as an internal control for normalization of transfection efficiency. Plasmids were complexed with 2 mL of FUGENE® 6 reagent (Promega, Madison, Wis.) in OPTIMEM® (Invitrogen, Carlsbad, Calif.) and cells were transfected for 18 h. The following day, cells were treated with vehicle and appropriate ligand as indicated. […]

TGR5 [2] = target: T1, TGR5; assay: cAMP assay in HEK293 overexpressing TGR5; type: cell-based; parameters: expressed in transfected cells; host or cells: HEK293 overexpressing TGR5; settings: HEK293 cells, in vitro
Description: (§1) Data analysis to determine EC50 values was performed with GraphPad Prism software using a cAMP standard curve and sigmoidal dose-response (variable slope) equation based on dose-response curves with tested compounds.
as §1

[3] = in vivo; cited from earlier work
[4] = single oral dose; cited from earlier work

## metformin-6eUDCA complex [DY306]
db/db mice; db/db mice
  effect on increase of HbA1c: dose dependently blocked the increase of HbA1c
db/db mice; db/db mouse model
  glycemic control: improved glycemic control
db/db mice; male db/db mice
  significance of the effect in body weight loss: not significant

## Metformin-OA [DY310]
TGR5 [1]
  potency in luciferase assays against TGR5 compared to the native TGR5 agonist: greater potency in luciferase assays than oleanolic acid

## metformin-6eCDCA complex [DY305]
db/db mice; male db/db mice
  significance of the effect in body weight loss: not significant
db/db mice; male db/db mice, daily for 5 weeks
  effect on body weight: effective in body weight loss

## CN(C)C(=N)NC(=N)N [Metformin, N,N-dimethylbiguanidine]
TGR5 [2]
  direct activation of TGR5 to induce cAMP formation: not a ligand for the TGR5; also recorded: did not directly activate TGR5
[3]
  decrease of the level of HbA1c: 1-2%
[4]
  time until undetectable in blood plasma: ≤ 24 h
